From patent publication US10323056B2, “Crystalline hydrates of 1-(β-D-glucopyranosyl)-4-methyl-3-[5-(4-fluorophenyl)-2-thienylmethyl]benzene” (Lek Pharmaceuticals d.d., priority 2013, dated 2019)
One block for each molecule: values may come before it.

Assays:
Type in all cases: physicochemical
[1] = Water content by gravimetric moisture sorption/desorption and TGA
Procedure: The water values at varying relative humidities were obtained by recording moisture sorption isotherms with a SPS-11 moisture sorption analyzer (MD Messtechnik, Ulm, D). […] The equilibrium condition for each step was set to a mass constancy of ±0.005% over 60 min. The temperature was 25±0.1° C.
Thermogravimetric analysis (TGA) was performed using the following equipment/conditions: Thermogravimetric-system TGA-7, Pyris-Software für Windows NT, (Perkin-Elmer, Norwalk, Conn., USA), Platinum-sample holder (50 μl), Nitrogen as the purge gas (Sample purge: 20 mL/min, balance purge: 40 mL/min). Heating rate: 10 K/min; Heating Range: 25-100° C.;

[2] = Competitive slurry in water (XRPD); settings: 50 mg each in 4 mL water, cycled 7 to 10° C. for 4 days, then 10 to 30° C. for 9 days
Procedure: A suspension of 50 mg 1-(β-D-glucopyranosyl)-4-methyl-3-[5-(4-fluorophenyl)-2-thienylmethyl]benzene form HxA (for example prepared according to the procedure described in example 1 of the present invention) and 50 mg 1-(β-D-glucopyranosyl)-4-methyl-3-[5-(4-fluorophenyl)-2-thienylmethyl]benzene hemihydrate (for example prepared according to the procedure described in example 1 of WO 2008/069327 A1) in 4 mL water was stirred at moderate velocity using a magnetic stirrer. The temperature during the slurry experiment was first cycled between 7 to 10° C. for 4 days changing the temperature every 2 hours. Thereafter the suspension was cycled in the range of 10 to 30° C. for 9 days changing the temperature every 2 hours.

[3] = Equilibrium aqueous solubility (HPLC); settings: for Rel. Solubilities: equilibrium aqueous solubility at 25 ± 1° C., relative to forms HxA/HxB = 100
Procedure: The aqueous solubilities of 1-(β-D-glucopyranosyl)-4-methyl-3-[5-(4-fluorophenyl)-2-thienylmethyl]benzene forms HxA and HxB of the present invention and the hemihydrate of 1-(β-D-glucopyranosyl)-4-methyl-3-[5-(4-fluorophenyl)-2-thienylmethyl]benzene described in WO 2008/069327 A1 were determined by the equilibrium solubility method. Saturated solutions of 1-(β-D-glucopyranosyl)-4-methyl-3-[5-(4-fluorophenyl)-2-thienylmethyl]benzene, obtained by stirring 50 mg of each crystalline form in 50 mL water were prepared and stirred at 25±1° C. After 60 minutes of stirring, three samples were withdrawn, filtered through 0.45 μm syringe filters and the filtrates were directly analyzed by HPLC. • Column: C18 4.6×150 mm 5 μm • Eluent A: 0.1% formic acid-water solution • Eluent B: 0.1% formic acid-acetonitril solution • Injection vol.: 100 μL • Column Temp.: 25° C. • Wavelength: 220 nm • Pump flow: 1.2 mL/min • Gradient: […]
Using six concentration points of known 1-(β-D-glucopyranosyl)-4-methyl-3-[5-(4-fluorophenyl)-2-thienylmethyl]benzene concentrations a calibration line was fitted by linear regression.

water content ([1]; at a RH of about 40%): about 6.4%
water content ([1]; at a RH of about 95%): about 8.0%
SMILES: Cc1ccc([C@@H]2O[C@H](CO)[C@@H](O)[C@H](O)[C@H]2O)cc1Cc1ccc(-c2ccc(F)cc2)s1 [form HxB, 1-(β-D-glucopyranosyl)-4-methyl-3-[5-(4-fluorophenyl)-2-thienylmethyl]benzene]

solid form stability in competitive slurry with hemihydrate [2]: does not transform
water content ([1]; at a RH of about 0%): about 0.1%
water content ([1]; at a RH of about 30%): about 3.5%
Rel. Solubilities [3]: 100%
increased aqueous solubility compared to the crystalline hemihydrate of WO 2008/069327 A1 ([3]; water, 25.0±1.0° C.): 10%
SMILES: Cc1ccc([C@@H]2O[C@H](CO)[C@@H](O)[C@H](O)[C@H]2O)cc1Cc1ccc(-c2ccc(F)cc2)s1 [form HxA, 1-(β-D-glucopyranosyl)-4-methyl-3-[5-(4-fluorophenyl)-2-thienylmethyl]benzene]

Rel. Solubilities ([3]; listed as hemihydrate of WO 2008/069327 A1 (=Hy0.5), hemihydrate): 90%
SMILES: Cc1ccc([C@@H]2O[C@H](CO)[C@@H](O)[C@H](O)[C@H]2O)cc1Cc1ccc(-c2ccc(F)cc2)s1 [form Hy0.5, 1-(β-D-glucopyranosyl)-4-methyl-3-[5-(4-fluorophenyl)-2-thienylmethyl]benzene hemihydrate, reference compound]
